# Measurements reported in patent US6126909A, “Process and apparatus for the production of BI-212 and a use thereof” (Arch Development Corporation, priority 1999, dated 2000).
# “And” between values parts separate entries of the source, which are not always exact repeats. Equal entries are not always repeated.
# Experiments:
# [1] = Biodistribution after intraperitoneal instillation; format: in vivo, rabbit
# Description: In vivo studies were conducted to determine the distribution of Bi-212 produced using the above-noted process and to compare the Bi-212 distribution to the distribution of Pb-212 ferrous hydroxide in colloidal form. The in vivo studies were conducted using white, female New Zealand rabbits weighing about 4.5 kilograms ([…]) each. Studies were also conducted using rabbits to determine the toxicity levels, e.g., the maximum tolerated dose. Efficacy studies were conducted using 25 gram (gm) female Swiss-Webster mice inoculated with Ehrlich-Lettre Ascites carcinoma cells.
# The rabbits were first anesthetized by intravenous titration. A polyethylene catheter was then inserted into the lower right quadrant of the rabbits' abdominal cavities and a trace amount of technetium-99m pertechnetate was instilled to confirm that the catheter was correctly placed.
# Groups of rabbits were instilled with a varying amounts (correlating to varying activities) of Bi-212 that were prepared in accordance with the before-described process, neutralized to pH values of between 5.0 and 7.4, and had added thereto a quantity of normal saline to make a 200 cc sample. To compare the distribution of Bi-212, Pb-212 ferrous hydroxide was prepared in accordance with known methods. Rotmensch et al., Gynecol. Oncol., 35:297-300 (1989). Groups of rabbits were also instilled with the Pb-212 ferrous hydroxide preparation.
# After instillation, the rabbits were rotated and imaged with a gamma camera set at 2.6 MeV. Where localization of the nuclide was identified in the rabbits, the rabbits were sacrificed and the localized area was excised and photographed.
# Of the groups of rabbits instilled with the Bi-212 solution, a rabbit was imaged and necropsied at each of one-half hour, one hour and three hours after instillation. The percent injected activity (%IA) in each organ was measured to determine the distribution of the Bi-212(Table 6). To determine whether chelating to DTPA improved the retention of Bi-212 in the peritoneal fluid, a group of rabbits was instilled with Bi-212 DTPA, and was imaged and necropsied at three hours following instillation. The percent activity remaining in the peritoneal fluid was measured.
# [2] = system: NIH:OVCAR-3 cells (spheroids); experiment: In vitro irradiation survival, spheroids; format: cell-based, human; conditions: OVCAR-3 spheroids
# Description: (§1) In vitro studies were carried out using three well known cell lines, the cells from which were exposed to radiation from: (1) an X-ray source; (2) P-32 chromic phosphate; and (3) Bi-212 chloride. The three cell lines that were used are V-79, which is a Chinese hamster lung fibroblast, Ehrlich-Lettre Ascites carcinoma (ATCC CCL 77), which is an ascites producing -tumor, and NIH:OVCAR-3 (ATCC HTB 161), which is a human ovarian adenocarcinoma. These well known cell lines are predictive of what happens in vivo. The cells were grown as monolayers and into spheroid formations and subsequently irradiated, as described herein.
# (§2) The V-79 cells were maintained under exponential growth conditions in minimal essential medium (MEM) supplemented with 10 percent fetal bovine serum. The Ehrlich-Lettre Ascites carcinoma cells were maintained in 90 percent NCTC 109 supplemented with 10 percent fetal bovine serum. The NIH:OVCAR-3 cells were maintained in RPMI 1640 and 10 percent fetal bovine serum.
# To initiate the formation of the spheroids, cells at a concentration of about 500,000 cells per flask were seeded onto petri dishes base-cooked with 1 percent agar MEM without serum. After spheroids having a size of about 20 micrometers (μm) formed, the spheroids were transferred to spinner bottles and maintained for two to three weeks at a temperature of 37° C. in a CO2 incubator until they grew to 10 to 1000 μm. Prior to irradiation, the spheroids were sized and separated using a spheroid separation column.
# (§3) Cells from each of the cell lines were irradiated by subjecting the cells to X-ray radiation, P-32, and Bi-212. The X-ray source that was used is a General Electric 250 kvp Maxitron, 26 […] (mA) (HVL 1.5 mm Cu) operated at a dose rate of 1.11 Greys per minute (Gy/min). The cells, in both monolayer and spheroid form were exposed at room temperature and then immediately plated for survival.
# (§4) Cells in both monolayer and spheroid were exposed to P-32 chromic phosphate. The radiation dose to each sample was calculated as: […]
# (§5) After exposure, the cells were washed in phosphate-buffered saline (PBS) and immediately plated for survival.
# The cell lines were also irradiated using Bi-212. […] The filter was purged with 1 ml of distilled deionized water, and the radioactivity was assayed using a calibrated 3×3-in. […]
# (§6) Cells were exposed over a period of four hours. The dose (D) per microCurie was calculated and corrected for decay as follows: [formula] where V=volume in milliliters, and […]
# (§7) Following plating, survival measurements were taken for each of the irradiated cell samples. […] The plates were then stained with crystal violet and colonies greater than 50 cells were scored. The surviving fraction was then determined.
# Intrinsic radiosensitivity (Do) was calculated from the survival curves. […]
# V-79 cells = experiment: In vitro irradiation survival (clonogenic), monolayer; format: cell-based, Chinese hamster; conditions: V-79 monolayer
# Description: as §1, §2, §3, §4, §5
# The cell lines were also irradiated using Bi-212. Bismuth-212 was eluted from a generator as described in the aforementioned patent to Atcher et al., which was a cation-exchange column supporting Ra-224, with 1 ml of 0.15 N HI, and the generator was purged with 2 ml of distilled deionized water. […] The filter was purged with 1 ml of distilled deionized water, and the radioactivity was assayed using a calibrated 3×3-in. […]
# as §6, §7
# Intrinsic radiosensitivity (Do) was calculated from the survival curves. […] Relative biological effectiveness (RBE) was determined as the ratio of the absorbed dose of X-ray to that of alpha radiation to produce the same degree of biological effect.
# [3] = 1/2 hour after intraperitoneal instillation
# [4] = 1 hour after intraperitoneal instillation
# [5] = 3 hours after intraperitoneal instillation
smiles,measurement,setting,value
"[212Bi] [Bi-212, bismuth-212]",Peritoneal fluid,[1]; [3],85.0 % IA and 70.3 % IA and 90.1 % IA
same,Stomach,[1]; [3],0.26 % IA and 0.34 % IA
same,Lower intestine & colon,[1]; [4],0.87 % IA
same,Peritoneal fluid,[1]; [4],85.7 % IA and 85.1 % IA and 88 % IA
same,Stomach,[1]; [4],0.09 % IA
same,Circulating blood,[1]; [5],3.4 % IA and 1.86 % IA and 2.96 % IA
same,Kidney,[1]; [5],2.15 % IA and 1.21 % IA and 2.10 % IA
same,Liver,[1]; [5],2.26 % IA and 2.25 % IA and 1.17 % IA
same,Lower intestine & colon,[1]; [5],7.14 % IA and 5.87 % IA and 9.14 % IA
same,Peritoneal fluid,[1]; [5],75.8 % IA and 80.2 % IA and 83.8 % IA
same,Reproductive organs,[1]; [5],0.53 % IA and 0.61 % IA and 0.59 % IA
same,Stomach,[1]; [5],0.90 % IA and 0.76 % IA and 0.59 % IA
same,Upper small intestine,[1]; [5],8.04 % IA and 6.63 % IA and 9.73 % IA
same,D0 (intrinsic radiosensitivity),[2]; dose to 37 percent survival,0.55 Gy
same,Relative biological effectiveness (RBE),[2]; relative to X-ray,2.81
same,D0 (intrinsic radiosensitivity),V-79 cells; dose increment reducing survival to 37 percent,0.77 Gy
same,Relative biological effectiveness (RBE),V-79 cells; relative to X-ray,3.02
